Data on 15 molecules can be found in patent US20080280837A1, “Biologically Active Compounds with Anti-Angiogenic Properties” (priority 2004, published 2008).

SMILES strings stand for the structures.

The target of this test is T1, Human SST5 somatostatin receptor (SSTR5) (Homo sapiens, UniProt P35346).
T1 construct: expressed in transfected cells; host or cells: HEK-293 EBNA
As to the kind of experiment: Filter plate assay for SST5 receptor, displacement of [125I]SST-14. It counts as binding. How it is done: Receptor membrane preparations containing the desired cloned receptor (for example cloned human somatostatin receptor subtype 5, SSTR5) and radio-labeled ligand (for example 3-[^125I]iodotyrosyl^11 Somatostatin-14)) were diluted at the concentration required for testing and according to the specific parameters associated with the selected receptor-ligand combination, including receptor Bmax, ligand Kd and any other parameters necessary to optimize the experimental conditions. When tested for competition activity to the reference ligand, “compound 1” was mixed with membrane suspension and the radiolabeled reference ligand (with or without an excess of cold ligand to the receptor for determination of non-specific binding) and incubated at the temperature required by internal standard operating procedures. Following incubation, the binding reaction was stopped by the addition of ice-cold washing buffer and filtered on appropriate filters, which are then counted. Data analysis and curve-fitting was performed with XLfit (IDBS).
10 mM solutions of test compounds in 100% DMSO were prepared. ˜160 μl was used for each dilution (20 μl/well in triplicate).
A 1.25 mM assay stock was prepared by making a 1:8 dilution of the 10 mM solution. (To 30 μL of the 10 mM solution was added 210 μL milli-Q H2O. A 1:5 dilution series in milli-Q H2O was then prepared.
Assays were performed in triplicate at each concentration within the 1:5 dilution series: 250 μM, 50 μM, 10 μM, […], 0.4 μM, 0.08 μM, 0.016 μM, 0.0032 μM, etc. (for SST4 assay) and 125 μM, 10 μM, 2 μM, 1 μM, 0.5 μM, etc (for SST5 assay).
Human SST5 somatostatin receptor was transfected into HEK-293 EBNA cells. Membranes were suspended in assay buffer (50 mM Tris-HCl, 1 mM EGTA, 5 mM MgCl2, 10% sucrose, pH 7.5).
After thawing the frozen receptor preparation rapidly, receptors were diluted with binding buffer, homogenized, and kept on ice. • 1. Use Multiscreen glass fiber filter plates (Millipore, Cat No MAFCNOB10) precoated with o.5% PEI for ˜2 hr at 4° C. Before use add 200 μl/well assay buffer and filter using Multiscreen Separation System. • 2. Incubate 5.5 μg of membranes (40 μl of a 1:40 dilution), buffer and [^125I]SST-14 (4 nM, ˜80 000 cpm, 2000 Ci/mmol) in a total volume of 200 μl for 60 min at 25° C. […] Prepare serial dilutions (1:5) of compounds, as described above and instead of adding SST-14 in well, add 20 μl of compounds (Table 1). • 3. Filter using Multiscreen Separation System with 5×0.2 ml ice-cold Assay buffer. • 4. Remove the plastic underdrain and dry plate in oven for 1 hr at 40° C. • 5. Seal tape to the bottom of the plate. • 6. Add 50 μl/well scintillant (Supermix, Wallac, Cat No 1200-439). • 7. Seal and count in the BJET, program 2.
In primary screening experiments compounds were tested in duplicate for a particular concentration.
A general note: In a radioligand displacement assay an active substance lowers the binding of a labelled ligand.

T1 sequence (P35346 whole entry): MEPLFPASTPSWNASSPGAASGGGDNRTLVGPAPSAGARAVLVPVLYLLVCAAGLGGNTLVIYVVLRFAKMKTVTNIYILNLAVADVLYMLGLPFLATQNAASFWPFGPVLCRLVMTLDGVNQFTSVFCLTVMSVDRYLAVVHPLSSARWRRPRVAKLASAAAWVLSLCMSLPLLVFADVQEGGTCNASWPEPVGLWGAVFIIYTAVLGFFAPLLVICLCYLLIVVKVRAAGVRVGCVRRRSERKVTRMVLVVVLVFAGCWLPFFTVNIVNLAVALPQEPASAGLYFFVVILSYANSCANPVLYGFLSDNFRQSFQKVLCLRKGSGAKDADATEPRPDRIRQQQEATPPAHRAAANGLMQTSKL

For `COC1C(O)C(COCc2ccc(Cl)cc2)OC(OCc2ccc(-c3ccccc3)cc2)C1NC(=O)CCNC(=N)N` (stereo not drawn) [Compound 78], the “SSTR5 Inhib 0.5 uM % (inhibition of binding of SST-14 to SSTR5)” value (from here on “SSTR5 Inhib 0.5 uM %”) is given as 43% and the “SSTR5 Inhib 10 uM % (inhibition of binding of SST-14 to SSTR5)” value (shortened to “SSTR5 Inhib 10 uM %”) is 88%.
For `COC1C(O)C(COCc2ccc3ccccc3c2)OC(OCc2ccc(Cl)cc2)C1NC(=O)C1CCN(C(=N)N)CC1` (stereo not drawn) [Compound 79], in that order: 55% and 88%.
In the same order, the values of `COC[C@H]1OC(OCc2ccc(-c3ccccc3)cc2)[C@H](NC(=O)CCCN)[C@@H](OCc2ccc(-c3ccccc3)cc2)[C@@H]1O` (stereo partly drawn) [Compound 80] are 44% and 88%.
In the same order, the values of `COC1C(O)C(COCc2ccc3ccccc3c2)OC(OCc2ccc3ccccc3c2)C1NC(=O)CCCN` (stereo not drawn) [Compound 81] are 60% and 87%.
For the molecule `COC[C@H]1OC(OCc2ccc3ccccc3c2)[C@H](NC(=O)CCCN)[C@@H](OCc2cccc(O)c2)[C@@H]1O` (stereo partly drawn) [Compound 82], the “SSTR5 Inhib 0.5 uM %” value is on record as 48% and the “SSTR5 Inhib 10 uM %” value is reported as 87%.
In the same order, the values of `CSC1OC(COCc2ccc(Cl)cc2)C(O)C(OCc2ccc(-c3ccccc3)cc2)C1NC(=O)CN` (stereo not drawn) [Compound 83] are 61% and 87%.
For `COC[C@H]1OC(OCc2ccc3ccccc3c2)[C@H](NC(=O)CCNC(=N)N)[C@H](OCc2ccccc2)[C@@H]1O` (stereo partly drawn) [Compound 85], in that order: 54% and 87%.
In the same order, the values of `COC[C@H]1OC(OCc2ccc3ccccc3c2)[C@H](NC(=O)CCNC(=N)N)[C@@H](OCc2ccc(-c3ccccc3)cc2)[C@@H]1O` (stereo partly drawn) [Compound 86] are 58% and 87%.
For `COC[C@H]1OC(OCc2ccccc2)[C@H](NC(=O)CCNC(=N)N)[C@H](OCc2ccc(-c3ccccc3)cc2)[C@@H]1O` (stereo partly drawn) [Compound 87], the “SSTR5 Inhib 0.5 uM %” value is 43% and the “SSTR5 Inhib 10 uM %” value turned out to be 86%.
In the same order, the values of `COC[C@H]1OC(OCc2ccc3ccccc3c2)[C@H](NC(=O)CNC(=N)N)[C@@H](OCc2ccc(-c3ccccc3)cc2)[C@@H]1O` (stereo partly drawn) [Compound 88] are 63% and 86%.
For `CSC1O[C@H](COCc2ccc3ccccc3c2)[C@@H](O)[C@@H](OCc2ccccc2)[C@H]1NC(=O)CCNC(=N)N` (stereo partly drawn) [Compound 89], in that order: 58% and 86%.
Regarding `COC[C@H]1OC(OCc2ccc(Cl)cc2)[C@H](NC(=O)CCCN)[C@@H](OCc2ccc(-c3ccccc3)cc2)[C@@H]1O` (stereo partly drawn) [Compound 90], the “SSTR5 Inhib 0.5 uM %” value stood at 52% and the “SSTR5 Inhib 10 uM %” value is recorded as 86%.
In the same order, the values of `CSC1O[C@H](COCc2ccccc2)[C@@H](O)[C@@H](OCc2ccc3ccccc3c2)[C@H]1NC(=O)CCCNC(=N)N` (stereo partly drawn) [Compound 91] are 53% and 86%.
For `COC[C@H]1OC(OCc2ccc3ccccc3c2)[C@H](NC(=O)CCCN)[C@H](OCc2ccccc2)[C@@H]1O` (stereo partly drawn) [Compound 92], in that order: 52% and 86%.
`COC[C@H]1OC(OCc2ccc(-c3ccccc3)cc2)[C@H](NC(=O)CCCNC(=N)N)[C@@H](OCc2ccc(Cl)cc2)[C@@H]1O` (stereo partly drawn) [Compound 93]: the “SSTR5 Inhib 0.5 uM %” value was found to be 47% and the “SSTR5 Inhib 10 uM %” value came to 86%.
